Measurements: patent US20140127185A1, “METHODS AND COMPOSITIONS USING NEUROPROTECTIVE STEROIDS AND THROMBOLYTIC AGENTS” (priority 2012, published 2014)

Legend:
[1] = test system: Male Sprague Dawley (SD) rats subjected to focal ischemia; test: Focal ischemia with delayed tPA in rats: cerebral hemorrhage, infarct volume, brain swelling; assay type: in vivo, rat; conditions: 24 hours post-stroke; tPA 5 mg/kg via femoral vein at 4.5 hours; progesterone i.p. at 2 hours
Description: 2,3,5-tripheynltetrazolium (TTC)-stained brain sections are used for quantification of intracerebral hemorrhage with a spectrophotometric hemoglobin assay. Samples typically are collected 19.5 hours after injury. The brain tissue is homogenized in 2 ml 0.05 M tris buffered saline and tween (TBS-T) followed by a 30-minute centrifugation (12,000 rpm) and re-centrifugation for 15-minutes at 10,000 rpm. Then, 200 μl reagent (QuantiChrom™ Hemoglobin Assay Kit; BioAssay Systems) is added to a 50 μl supernatant. Optical density is measured at 405 nm with a spectrophotometer.
Brain edema/swelling are estimated by measuring the hemispheric areas of each 2-mm thick brain slices using Image J software (NIH, Bethesda, […]., USA), typically 24 hours after MCAO. Edema formation is calculated as hemispheric enlargement and expressed as a percentage of the normal areas in the contralateral hemisphere.
Male Sprague Dawley (SD) rats were subjected to focal ischemia, reperfused at 4.5 hours and then treated with tPA (5 mg/kg body weight; via femoral vein) at 4.5 hours or by combined progesterone (given by intraperitoneal injection at 2 hours) plus tPA (given at 4.5 hours). Rats were killed at 24 hours after ischemia, brains were perfused with saline, and coronal sections (2 mm thick) were stained with 2,3,5-triphenyltetrazolium chloride to quantify infarct volumes. […]

MMP-9 [2] = test: MMP-9 levels in bEND3 cells exposed to H/R and tPA; assay type: cell-based, mouse; conditions: bEND3 cells exposed to H/R and tPA for 9 hours; progesterone pretreatment
Description: The bEnd 3 cells grown to confluence on coverslips are subjected to the indicated treatments. For […], cells are washed three times with PBS, fixed in 3% paraformaldehyde for 10 minutes, permeabilized with 02% Triton X-100 in PBS for 10 minutes and blocked with 10% BSA and 0.1% Triton X-100 in PBS for 1 hour. After washing with PBS, the monolyers are incubated with a primary antibody for occludin (Invitrogen, 1:200) and MMP-9 (Abeam, Mass., USA, 1:200) overnight at 4° C. The cell monolayers are then washed 3 times with PBS and incubated with Alexa Fluor 488 anti-rabbit and orange anti-mouse (Molecular Probes, Eugene, Oreg.) for 1 hour. After washing in PBS, the coverslips are mounted on glass slides with Vectasheild with dapi (Vecta Laboratories).
To mimic ischemia-like conditions in vitro, immortalized mouse brain endothelial (bEND3) cells were exposed to 6 hours of hypoxia and 3 hours of reoxygeneation with or without the administration of tPA at a dose of 20 μ/ml. […] BBB integrity was evaluated by transendothelial membrane electrical resistance (TEER) measurement, MMP-9 activity, and the alteration of tight junction proteins following in vitro H/R injury.
To directly determine MMP-9 activity after ischemia, proteolytic activity of MMP-9 was measured using a fluorescence resonance energy transfer peptide. […]

MMP-9 [3] = test: Active MMP-9 fluorometric FRET peptide assay of ischemic cortex lysates; assay type: in vivo, rat; conditions: 24 hours after ischemia; tPA at 4.5 hours; vs control and tMCAO groups
Description: A Fluorimetric SensoLyte™ 490 kit (AnaSpec Corp., San Jose, Calif. USA) is used to quantify the specific enzymetic activity of active MMP-9 by using a fluorescence resonance energy transfer peptide containing a fluorescent donor and quenching acceptor (Lin, Hou et al. 2008). The samples (100 μg) are placed in a 96-well plate containing 50 μl of assay buffer. The proteolytic resonance energy transfer peptide is expressed as a fold change in fluorescence intensity at excitation of 355 nm/emission of 460 nm.
For in vivo evaluation, Male SD rats were subjected to MCAO, reperfused at 4.5 hours and then treated with tPA only (5 mg/kg body weight via femoral vein) at 4.5 hours post-stroke or with progesterone (intraperitoneally) at 2 hours post-stroke plus tPA at 4.5 hours post-stroke. Rats were killed at 24 hours post-ischemia and their brains perfused for evaluation of cerebral hemorrhage, brain swelling, BBB permeability, MMP-9 activity, and the alteration of tight junction proteins.
To directly determine MMP-9 activity after ischemia, proteolytic activity of MMP-9 was measured using a fluorescence resonance energy transfer peptide. […] Consistent with the Western blot results, exposure of cells to H/R and tPA for 9 hours reduced the detected levels of occludin, as compared to control bEND 3 cells, while MMP-9 levels were increased in cells exposed to H/R and tPA for 9 hours.

In the case of “tPA: serum protease acting specifically on serum plasminogen; also known as alteplase, available commercially as Activase”, the “Hemorrhage volume (hemoglobin in perfused brain)” value [1] is reported as “induced cerebral hemorrhage”, the MMP-9 levels (MMP-9 [2]) is reported as “increased” and the “MMP-9 activity (FRET peptide)” value (MMP-9 [3]) is reported as “significantly higher”.
